Results on twelve compounds are retold here after patent publication US11208386B2, “Inhibitors of protein arginine deiminases (PADs) and methods of preparation and use thereof” (University of Massachusetts, priority 2016, dated 2021).

Holding throughout (type): biochemical
The target of one assay is T1, PAD2 (Homo sapiens, UniProt Q9Y2J8).
T1 construct: made in house
Description: Inactivation kinetics, PAD2. The conditions noted are these: for kinact/KI: a: single kobs determined, b: from a linear fit, other footnotes: from kinact and KI; for Fold PAD2 Selectivity: kinact/KI relative to least inhibited isozyme (1.0). The method, then: (§1) Inactivation kinetic parameters were determined by incubating PAD1, 2, or 4 (2.0 μM) or PAD3 (5.0 μM) in a pre-warmed (10 min; 37° C.) inactivation mixture (50 mM HEPES, 10 mM CaCl2, and 2 mM DTT, pH 7.6, with a final volume of 60 μL) containing various concentrations of inhibitor. Aliquots were removed at various time points and added to a pre-warmed (10 min, 37° C.) reaction mixture (50 mM HEPES, 50 mM NaCl, 10 mM CaC2, 2 mM DTT, and 10 mM BAEE or 10 mM BAA in the case of PAD3; pH 7.6). After 15 min, reactions were quenched in liquid nitrogen and citrulline production quantified using the COLDER assay. […] In Vitro Labeling of PADs with “Clickable” Probes BB-F-Yne (5u), BB-Cl-Yne (5v) and BIFYne (5w)

A further assay has as its target T2, PAD1 (Homo sapiens, UniProt Q9ULC6).
T2 construct: made in house
T2 sequence (Q9ULC6 1-663): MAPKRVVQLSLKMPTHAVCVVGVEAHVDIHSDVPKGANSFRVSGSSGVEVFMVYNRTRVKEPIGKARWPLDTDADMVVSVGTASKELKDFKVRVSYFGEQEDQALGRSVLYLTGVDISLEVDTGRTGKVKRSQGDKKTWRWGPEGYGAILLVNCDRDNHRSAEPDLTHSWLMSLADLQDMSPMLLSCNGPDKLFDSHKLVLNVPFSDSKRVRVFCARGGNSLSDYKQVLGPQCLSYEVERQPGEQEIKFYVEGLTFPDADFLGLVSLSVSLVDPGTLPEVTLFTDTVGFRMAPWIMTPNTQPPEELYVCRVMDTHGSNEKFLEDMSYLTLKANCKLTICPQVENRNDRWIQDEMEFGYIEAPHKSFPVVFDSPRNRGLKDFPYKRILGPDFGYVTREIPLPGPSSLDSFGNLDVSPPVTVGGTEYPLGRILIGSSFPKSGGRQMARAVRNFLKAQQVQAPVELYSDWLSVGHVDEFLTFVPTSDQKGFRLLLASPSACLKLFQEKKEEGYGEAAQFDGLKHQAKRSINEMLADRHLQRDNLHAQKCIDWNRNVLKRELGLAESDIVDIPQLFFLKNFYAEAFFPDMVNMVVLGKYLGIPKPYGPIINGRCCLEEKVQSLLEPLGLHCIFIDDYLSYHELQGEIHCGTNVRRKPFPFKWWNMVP
Description: Inactivation kinetics, PAD1. The conditions noted are these: for kinact/KI: a: single kobs determined, b: from a linear fit; for Fold PAD1 Selectivity: kinact/KI relative to least inhibited isozyme (1.0). The method, then:
as §1

In another assay the target is T3, PAD3 (Homo sapiens, UniProt Q9ULW8).
T3 construct: made in house
T3 sequence (Q9ULW8 1-664): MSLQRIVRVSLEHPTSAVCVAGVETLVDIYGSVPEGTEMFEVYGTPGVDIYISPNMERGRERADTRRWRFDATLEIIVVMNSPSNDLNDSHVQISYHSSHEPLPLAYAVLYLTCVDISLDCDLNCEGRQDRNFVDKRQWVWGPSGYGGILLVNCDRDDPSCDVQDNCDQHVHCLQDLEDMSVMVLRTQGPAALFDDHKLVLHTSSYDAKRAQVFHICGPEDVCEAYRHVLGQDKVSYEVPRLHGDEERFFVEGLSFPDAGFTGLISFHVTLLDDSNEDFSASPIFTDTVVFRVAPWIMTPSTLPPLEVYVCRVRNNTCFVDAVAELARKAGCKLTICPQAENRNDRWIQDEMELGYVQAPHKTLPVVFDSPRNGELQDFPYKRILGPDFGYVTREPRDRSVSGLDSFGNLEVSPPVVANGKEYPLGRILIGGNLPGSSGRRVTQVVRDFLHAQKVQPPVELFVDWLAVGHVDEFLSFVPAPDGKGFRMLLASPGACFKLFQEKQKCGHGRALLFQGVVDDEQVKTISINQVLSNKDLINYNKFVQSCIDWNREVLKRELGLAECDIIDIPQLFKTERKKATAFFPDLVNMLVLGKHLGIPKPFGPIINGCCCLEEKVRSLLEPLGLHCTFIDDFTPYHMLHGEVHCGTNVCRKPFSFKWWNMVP
Description: Inactivation kinetics, PAD3. The conditions noted are these: for kinact/KI: a: single kobs determined; for Fold PAD3 Selectivity: kinact/KI relative to least inhibited isozyme (1.0). As to the method: as §1

The target of the next assay is T4, PAD4 (Homo sapiens, UniProt Q9UM07).
T4 construct: made in house
T4 sequence (Q9UM07 whole entry): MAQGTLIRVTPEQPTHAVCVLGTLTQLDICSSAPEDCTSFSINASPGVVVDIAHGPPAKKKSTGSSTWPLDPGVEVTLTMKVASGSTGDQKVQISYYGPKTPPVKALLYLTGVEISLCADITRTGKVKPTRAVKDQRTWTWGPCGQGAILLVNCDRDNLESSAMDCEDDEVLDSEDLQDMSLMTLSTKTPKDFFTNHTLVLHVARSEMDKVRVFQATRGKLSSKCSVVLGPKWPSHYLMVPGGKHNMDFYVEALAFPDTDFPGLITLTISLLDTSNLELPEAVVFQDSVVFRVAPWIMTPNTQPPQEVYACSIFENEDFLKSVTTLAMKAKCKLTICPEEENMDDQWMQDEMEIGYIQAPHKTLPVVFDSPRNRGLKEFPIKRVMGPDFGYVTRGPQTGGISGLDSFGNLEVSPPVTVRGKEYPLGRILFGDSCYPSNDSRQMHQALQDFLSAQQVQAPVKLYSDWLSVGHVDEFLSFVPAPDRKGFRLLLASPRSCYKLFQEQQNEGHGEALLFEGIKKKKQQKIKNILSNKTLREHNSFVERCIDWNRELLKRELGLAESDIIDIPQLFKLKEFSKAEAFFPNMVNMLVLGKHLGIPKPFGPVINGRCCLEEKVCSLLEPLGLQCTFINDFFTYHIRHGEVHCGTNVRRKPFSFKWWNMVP
Description: Inactivation kinetics, PAD4. The conditions noted are these: for kinact/KI: a: single kobs determined, b: from a linear fit; for Fold PAD4 Selectivity: kinact/KI relative to least inhibited isozyme (1.0). As to the method: as §1

pKi: −log10 of the molar value.

T1 sequence (Q9Y2J8 whole entry): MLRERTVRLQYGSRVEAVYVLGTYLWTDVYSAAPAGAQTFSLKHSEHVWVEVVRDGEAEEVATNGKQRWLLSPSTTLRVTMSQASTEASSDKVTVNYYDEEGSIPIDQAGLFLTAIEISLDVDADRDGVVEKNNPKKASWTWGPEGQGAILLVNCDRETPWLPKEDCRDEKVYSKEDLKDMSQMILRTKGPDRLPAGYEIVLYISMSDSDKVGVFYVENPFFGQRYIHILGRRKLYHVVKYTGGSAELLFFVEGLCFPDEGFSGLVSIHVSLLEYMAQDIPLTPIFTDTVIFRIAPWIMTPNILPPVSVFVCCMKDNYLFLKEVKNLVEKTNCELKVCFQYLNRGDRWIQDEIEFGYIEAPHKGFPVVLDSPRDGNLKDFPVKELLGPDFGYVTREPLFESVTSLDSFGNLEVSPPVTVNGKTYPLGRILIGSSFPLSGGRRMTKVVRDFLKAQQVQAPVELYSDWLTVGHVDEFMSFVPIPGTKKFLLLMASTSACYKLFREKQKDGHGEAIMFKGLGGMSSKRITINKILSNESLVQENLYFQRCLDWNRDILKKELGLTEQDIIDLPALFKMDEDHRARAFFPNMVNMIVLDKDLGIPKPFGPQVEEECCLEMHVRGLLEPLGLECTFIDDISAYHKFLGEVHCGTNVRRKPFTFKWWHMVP

Take `N=C(CCl)NCCC[C@H](NC(=O)c1ccccc1C(=O)O)c1nc2ccccc2[nH]1` [Compound 6b, N1-(2-Carboxyl)benzol-N5-(2-chloro-1-iminoethyl)-1-(1H-benzo[d]imidazol-2-yl)-L-omithine]: on PAD2, the second-order inactivation constant (kinact/KI) (commonly the second-order rate constant of inactivation) was 57.5 M⁻¹ s⁻¹ and the “Fold PAD2 Selectivity” value turned out to be 1.0 fold. In addition, on PAD1, the kinact/KI was 475 M⁻¹ s⁻¹ and the “Fold PAD1 Selectivity” value was 8.3 fold. In addition, at PAD3, the kinact/KI was 354 M⁻¹ s⁻¹ and the “Fold PAD3 Selectivity” value turned out to be 6.2 fold. At PAD4, the second-order inactivation constant (kinact/KI) is 517 M⁻¹ s⁻¹ and the “Fold PAD4 Selectivity” value turned out to be 9.0 fold.

As for `Cn1c([C@H](CCCNC(=N)CF)NC(=O)c2ccccc2C(=O)O)nc2ccccc21` [Compound 6c, N1-(2-Carboxyl)benzoyl-N5-(2-fluoro-1-iminoethyl)-1-(1-methyl-benzo[d]imidazol-2-yl)-L-ornithine], at PAD2, the kinact/KI is 197 M⁻¹ s⁻¹ and the “Fold PAD2 Selectivity” value came out at 15 fold. For the same compound, on PAD1, the kinact/KI is 538 M⁻¹ s⁻¹ and the “Fold PAD1 Selectivity” value worked out at 40 fold. In addition, at PAD3, the second-order inactivation constant (kinact/KI) is 17.2 M⁻¹ s⁻¹ and the “Fold PAD3 Selectivity” value is given as 1.3 fold. In addition, at PAD4, the second-order inactivation constant (kinact/KI) is 13.3 M⁻¹ s⁻¹ and the “Fold PAD4 Selectivity” value is 1.0 fold.

Turning to `Cn1c([C@H](CCCNC(=N)CCl)NC(=O)c2ccccc2C(=O)O)nc2ccccc21` [Compound 6d, N1-(2-Carboxyl)benzoyl-N5-(2-chloro-1-iminoethyl)-1-(1-methyl-benzo[d]imidazol-2-yl)-L-ornithine], on PAD2, the inactivation efficiency (kinact/KI) was 240 M⁻¹ s⁻¹ and the “Fold PAD2 Selectivity” value turned out to be 1.9 fold. For the same compound, on PAD1, the kinact/KI is 537 M⁻¹ s⁻¹ and the “Fold PAD1 Selectivity” value stood at 4.3 fold. Moreover, at PAD3, the kinact/KI is 125 M⁻¹ s⁻¹ and the “Fold PAD3 Selectivity” value is given as 1.0 fold. For the same compound, on PAD4, the inactivation efficiency (kinact/KI) is 130 M⁻¹ s⁻¹ and the “Fold PAD4 Selectivity” value is reported as 1.0 fold.

Turning to `CCn1c([C@H](CCCNC(=N)CF)NC(=O)c2ccccc2C(=O)O)nc2ccccc21` [Compound 6e, N1-(2-Carboxyl)benzoyl-N5-(2-fluoro-1-iminoethyl)-1-(1-ethyl-benzo[d]imidazol-2-yl)-L-ornithine], at PAD2, the kinact/KI is 527 M⁻¹ s⁻¹ and the “Fold PAD2 Selectivity” value is 31 fold. Further, on PAD1, the kinact/KI is 650 M⁻¹ s⁻¹ and the “Fold PAD1 Selectivity” value is 39 fold. In addition, at PAD3, the kinact/KI is 29.2 M⁻¹ s⁻¹ and the “Fold PAD3 Selectivity” value came out at 1.7 fold. Also, at PAD4, the inactivation efficiency (kinact/KI) was 16.8 M⁻¹ s⁻¹ and the “Fold PAD4 Selectivity” value is on record as 1.0 fold.

Turning to `CCn1c([C@H](CCCNC(=N)CCl)NC(=O)c2ccccc2C(=O)O)nc2ccccc21` [Compound 6f, N1-(2-Carboxyl)benzoyl-N5-(2-chloro-1-iminoethyl)-1-(1-ethyl-benzo[d]imidazol-2-yl)-L-ornithine], at PAD2, the kinact/KI is 290 M⁻¹ s⁻¹ and the “Fold PAD2 Selectivity” value is 1.6 fold. Also, at PAD1, the inactivation efficiency (kinact/KI) was 785 M⁻¹ s⁻¹ and the “Fold PAD1 Selectivity” value is reported as 4.3 fold. Moreover, at PAD3, the inactivation efficiency (kinact/KI) is 183 M⁻¹ s⁻¹ and the “Fold PAD3 Selectivity” value worked out at 1.0 fold. In addition, on PAD4, the kinact/KI is 228 M⁻¹ s⁻¹ and the “Fold PAD4 Selectivity” value stood at 1.2 fold.

Turning to `CC(C)n1c([C@H](CCCNC(=N)CF)NC(=O)c2ccccc2C(=O)O)nc2ccccc21` [Compound 6g, N1-(2-Carboxyl)benzoyl-N5-(2-fluoro-1-iminoethyl)-1-(1-isopropyl-benzo[d]imidazol-2-yl)-L-ornithine], on PAD2, the inactivation efficiency (kinact/KI) is 412 M⁻¹ s⁻¹ and the “Fold PAD2 Selectivity” value is 54 fold. Moreover, at PAD1, the kinact/KI is 378 M⁻¹ s⁻¹ and the “Fold PAD1 Selectivity” value amounted to 49 fold. In addition, on PAD3, the kinact/KI is 33.5 M⁻¹ s⁻¹ and the “Fold PAD3 Selectivity” value was determined as 4.4 fold. On PAD4, the kinact/KI is 7.67 M⁻¹ s⁻¹ and the “Fold PAD4 Selectivity” value worked out at 1.0 fold.

Regarding `CC(C)n1c([C@H](CCCNC(=N)CCl)NC(=O)c2ccccc2C(=O)O)nc2ccccc21` [Compound 6h, N1-(2-Carboxyl)benzoyl-N5-(2-chloro-1-iminoethyl)-1-(1-isopropyl-benzo[d]imidazol-2-yl)-L-ornithine], on PAD2, the kinact/KI is 452 M⁻¹ s⁻¹ and the “Fold PAD2 Selectivity” value came out at 38 fold. Moreover, on PAD1, the kinact/KI is 817 M⁻¹ s⁻¹ and the “Fold PAD1 Selectivity” value was determined as 68 fold. Further, on PAD3, the kinact/KI is 45 M⁻¹ s⁻¹ and the “Fold PAD3 Selectivity” value was 3.8 fold. At PAD4, the kinact/KI was 12 M⁻¹ s⁻¹ and the “Fold PAD4 Selectivity” value amounted to 1.0 fold.

`COc1cccc2c1nc([C@H](CCCNC(=N)CF)NC(=O)c1ccccc1C(=O)O)n2C` [Compound 6i, N1-(2-Carboxyl)benzoyl-N5-(2-fluoro-1-iminoethyl)-1-(4-methoxy-1-methyl-benzo[d]imidazol-2-yl)-L-ornithine]: on PAD2, the kinact/KI was 340 M⁻¹ s⁻¹ and the “Fold PAD2 Selectivity” value is 3.4 fold. In addition, on PAD1, the second-order inactivation constant (kinact/KI) was 627 M⁻¹ s⁻¹ and the “Fold PAD1 Selectivity” value came out at 6.2 fold. Also, at PAD3, the kinact/KI is 113 M⁻¹ s⁻¹ and the “Fold PAD3 Selectivity” value is on record as 1.1 fold. For the same compound, on PAD4, the kinact/KI was 101 M⁻¹ s⁻¹ and the “Fold PAD4 Selectivity” value was determined as 1.0 fold.

Regarding `COc1cccc2c1nc([C@H](CCCNC(=N)CCl)NC(=O)c1ccccc1C(=O)O)n2C` [Compound 6j], at PAD2, the kinact/KI is 308 M⁻¹ s⁻¹ and the “Fold PAD2 Selectivity” value amounted to 1.9 fold. Also, at PAD1, the second-order inactivation constant (kinact/KI) was 1120 M⁻¹ s⁻¹ and the “Fold PAD1 Selectivity” value is recorded as 7.0 fold. Further, at PAD3, the inactivation efficiency (kinact/KI) was 160 M⁻¹ s⁻¹ and the “Fold PAD3 Selectivity” value is listed as 1.0 fold. Moreover, at PAD4, the second-order inactivation constant (kinact/KI) was 235 M⁻¹ s⁻¹ and the “Fold PAD4 Selectivity” value stood at 1.5 fold.

Regarding `N=C(CF)NCCC[C@H](NC(=O)c1cccc2c1C(=O)NC2)c1nc2ccccc2[nH]1` [Compound 7a, N1-(3-oxoisoindoline)benzol-N5-(2-fluoro-1-iminoethyl)-1-(1H-benzo[d]imidazol-2-yl)-L-ornithine], on PAD2 (PAD2, table footnote), the pKi – broadly, −log10 of the Ki, conventionally taken in molar units – is 3.68 and the kinact (as a rule, the rate constant of inactivation at saturating inhibitor) came out at 0.0373 s⁻¹. At PAD2, the kinact/KI is 177 M⁻¹ s⁻¹ and the “Fold PAD2 Selectivity” value came to 3.3 fold. For the same compound, on PAD1, the kinact/KI was 1290 M⁻¹ s⁻¹ and the “Fold PAD1 Selectivity” value was 24 fold. On PAD3, the kinact/KI is 53.3 M⁻¹ s⁻¹ and the “Fold PAD3 Selectivity” value is on record as 1.0 fold. Further, at PAD4, the kinact/KI was 552 M⁻¹ s⁻¹ and the “Fold PAD4 Selectivity” value was determined as 10 fold.

With `N=C(CCl)NCCC[C@H](NC(=O)c1cccc2c1C(=O)NC2)c1nc2ccccc2[nH]1` [Compound 7b, N1-(3-oxoisoindoline)benzol-N5-(2-chloro-1-iminoethyl)-1-(1H-benzo[d]imidazol-2-yl)-L-ornithine], on PAD2, the inactivation efficiency (kinact/KI) was 1090 M⁻¹ s⁻¹ and the “Fold PAD2 Selectivity” value stood at 2.3 fold. Also, on PAD1, the kinact/KI is 3010 M⁻¹ s⁻¹ and the “Fold PAD1 Selectivity” value was found to be 6.5 fold. At PAD3, the kinact/KI is 467 M⁻¹ s⁻¹ and the “Fold PAD3 Selectivity” value is 1.0 fold. On PAD4, the inactivation efficiency (kinact/KI) is 968 M⁻¹ s⁻¹ and the “Fold PAD4 Selectivity” value was determined as 2.1 fold.

As for `Cn1c([C@H](CCCNC(=N)CF)NC(=O)c2cccc3c2C(=O)NC3)nc2ccccc21` [Compound 7c], on PAD2, the kinact/KI is 413 M⁻¹ s⁻¹ and the “Fold PAD2 Selectivity” value is 8.9 fold. At PAD1, the kinact/KI was 1140 M⁻¹ s⁻¹ and the “Fold PAD1 Selectivity” value was 25 fold. Further, on PAD3, the kinact/KI is 46.7 M⁻¹ s⁻¹ and the “Fold PAD3 Selectivity” value came out at 1.0 fold. For the same compound, at PAD4, the kinact/KI is 48.5 M⁻¹ s⁻¹ and the “Fold PAD4 Selectivity” value is 1.0 fold.
